Series [1] relates to melatonin binding sites in the rat brain. Briefly: Experiment 5: melatonin binding sites in rat brain, sham-operated and pinealectomized rats. Type of series: in vivo.
Series [2] concerns melatonin binding sites in cytosol of epithelial cells from human BPH prostate tissue. Briefly: Specific binding of 125I-melatonin to cytosol from epithelial cells of human BPH tissue. Conditions: for Bound in Epithelial (specific binding, mean): 4 patients. As to the method:
(§1) Tissue specimens were obtained from prostate glands removed by open surgery from patients suffering from urinary obstruction due to benign prostatic hyperplasia. Epithelial and stromal cells were separated from the tissue by filtration through a stainless steel mesh. The cells were then washed with saline and collected by centrifugation (1000 g, 5 min). […] The two preparations were separately homogenized at 4° C. in 0.05 M Tris-HCl, pH 7.4. Each homogenate was spun at 100,000 g for 1 hour at 4° C. and the supernatant was removed with a Pasteur pipette. Melatonin binding was measured by incubating 300 microliters of supernatant containing ca. 20 mcg. protein with carrier-free ^125 I-melatonin at concentrations of 0-1 nM, for 1 hour at 37° C. in the presence of 0.05% Triton X-100. After the incubation period, bound ^125 I-melatonin was separated from free ^125 I-melatonin by vacuum filtration using GFF glass fiber filters saturated with polyethylenimine. Protein concentrations were measured by the method of Lowry et al (J. Biol. Chem., 193: 265, 1951) using bovine serum albumin as a standard. Non-specific binding was determined by incubating the supernatant samples with the specified concentrations of ^125 I-melatonin, but in the presence of a vast excess (10 micromolar) nonradioactive melatonin.

Series [3] deals with melatonin binding sites in cytosol of stromal cells from human BPH prostate tissue. Briefly: Specific binding of 125I-melatonin to cytosol from stromal cells of human BPH tissue. Particulars: for Bound in Stromal (specific binding, mean): 4 patients. On the procedure:
as §1, with “melatonin. These experiments were repeated four times, using specimens from four different patients, with similar results.” for “melatonin.”

Series [4] concerns adult castrated rats. Briefly: Experiment 1: androgen-dependent regrowth of accessory sex organs in adult castrated rats. Type of series: in vivo, rat. Particulars: testosterone propionate 1 mg/kg/day s.c. 4 days, melatonin about 40 mcg per day in drinking water. As to the method: The effects of orally administered melatonin on androgen-dependent prostatal regrowth in adult castrated rats was investigated. Male rats (2.5 months old) were castrated under anesthesia. After 7 days, during which the average weight of the prostate decreased by ca. 60%, the rats were given daily for 4 days, a subcutaneous injection of either oil vehicle (control) or oil vehicle containing testosterone propionate (1 mg/kg body weight per day, at one hour before lights-off). […] In order to determine the weight of the relevant organs, the rats were sacrificed at the end of the 4 days following the first 7 days. […] These studies indicate a direct inhibitory effect of orally administered melatonin on prostatal growth in adult rats, contrary to the dogma that melatonin can affect the pubertal development of the rat only during the first (prepubertal) 40 days of life (Lang et al. Endocrinology,112, 1578-1584, 1983).

Series [5] deals with male volunteers suffering from BPH. Briefly: Experiment 2: placebo-controlled study of oral melatonin in male volunteers suffering from BPH. The series is classed as in vivo, human. Particulars: 5 mg melatonin/day oral at about 10 p.m.; preliminary results.
Series [6] has as its system aged male rats. Briefly: Experiment 3: melatonin via drinking water for 30 days in aged male rats. The series is classed as in vivo, rat. Conditions: 23-month old male rats. As to the method: The impact of exogenously administered melatonin on central melatonin binding sites and serum testosterone in aged male rats was investigated. Thus, 23-month old male rats were treated with melatonin via the drinking water for 30 days.

Series [7] relates to 8-10 month old adult rats. Briefly: Experiment 4: long term (~18 months) melatonin via drinking water in adult rats. Type of series: in vivo, rat. On the procedure: The effects on 8-10 month old adult rats, of long term (~18 months) administration of melatonin via the drinking water (4 mg./l.), on the survival, on central melatonin binding sites, and on serum testosterone, were investigated.

In series [8] the test system is patient with benign prostate hypertrophy. Briefly: Example I: BPH patient on 0.5 mg sustained release melatonin daily. Type of series: in vivo, human. As to the method:
Thus, the patient's PSA level was elevated, and their prostatic acid phosphatase level was slightly above normal. […] Diagnosis after needle biopsy was benign prostate hypertrophy.
The patient began taking 0.5 mg melatonin in the sustained release form daily at 21:00-22:00 hours on Feb. 1, 1992; on a continuing basis, i.e. medication was continued essentially indefinitely. […] Examination of the patient by ultrasonographic scanning on Oct. […] By Jun.

Series [9] concerns BPH patients. Briefly: Example II: ultrastructural morphology of the human prostate after 30 days of melatonin. Type of series: in vivo. Particulars: 5 mg sustained release daily in the evening, 30 days prior to prostatectomy, five BPH patients. The source says:
Specimens from the prostate glands removed from the treated patients, and from control untreated patients of the same status, were fixed in glutaraldehyde immediately after the excision, embedded in "Epon" and analyzed by electron microscopy.

Series [10] has as its system BPH patients. Type of series: in vivo, human. On the procedure:
In a clinical trial which commenced in April, 1993, 23 BPH patients were recruited and divided into two groups, one group receiving 5 mg melatonin in a sustained release formulation and the other group 50 mg melatonin in a fast release formulation, these dosages being given daily, in the evening. One patient withdrew from the study after 7 days of treatment. […] Up to August, 1993, 6 patients finished 3 months' treatment with melatonin, and the remainder had 1-2 months treatment. All patients will continue the treatment with melatonin until 6 months is completed.

Series [11] has as its system 3α reductase. Particulars: BPH tissue samples; cited from earlier work.
The test system of series [12] is 5α reductase. Particulars: BPH tissue samples; cited from earlier work.
Series [13] deals with castrated rats; hypophysectomized animals. Conditions: cited from earlier work.
The subject of series [14] is male and female rats. Conditions: oral 16-40 mcg. per day; cited from earlier work.
Series [15] concerns pinealectomized rats. Particulars: orally administered; cited from earlier work.
The subject of series [16] is human subjects. Conditions: cited from earlier work.
The mark [17] stands for this setting: pinealectomized rats, daily injections.
[18] abbreviates: 4 mg./l. in drinking water, ~18 months.
The mark [19] stands for this setting: patients who had completed 3 months' treatment.

For `O=C1Nc2ccc(Cl)cc2C(c2ccccc2)=NC1O` (stereo not shown) [oxazepam], in series [1] (setting [17]), the “melatonin binding at other times of the day” value is on record as “did not significantly effect the binding at other times of the day” and the “melatonin binding sites at 19 hours after lights-on” value is reported as “decreased melatonin binding sites at 19 hours after lights-on”. For the same compound, the “densities of melatonin binding sites in brain areas, time of peak” value in series [1] (sham-operated rats, daily injections 14 days, untreated peak at 13 hours after lights-on) is listed as “higher at midnight”.

With `COc1ccc2[nH]c([125I])c(CCNC(C)=O)c2c1` [^125 I-melatonin], the “Bound in Epithelial (specific binding, mean)” value stood at 6.25 fmol/mg protein in [2] (125I-melatonin 0.05 nM); 12.5 fmol/mg protein in series [2] (125I-melatonin 0.10 nM); 31.3 fmol/mg protein in series [2] (125I-melatonin 0.20 nM); 45.6 fmol/mg protein in [2] (125I-melatonin 0.30 nM); 66.9 fmol/mg protein in series [2] (125I-melatonin 0.50 nM); 93.1 fmol/mg protein in [2] (125I-melatonin 1.00 nM). Also, the “Bound in Stromal (specific binding, mean)” value came out at 0.6 fmol/mg protein in [3] (125I-melatonin 0.05 nM); 2.5 fmol/mg protein in series [3] (125I-melatonin 0.10 nM); 3.7 fmol/mg protein in series [3] (125I-melatonin 0.20 nM); 4.3 fmol/mg protein in [3] (125I-melatonin 0.30 nM); 8.8 fmol/mg protein in series [3] (125I-melatonin 0.50 nM); 16.2 fmol/mg protein in [3] (125I-melatonin 1.00 nM).

Take `CCC(=O)O[C@H]1CC[C@H]2[C@@H]3CCC4=CC(=O)CC[C@]4(C)[C@H]3CC[C@]12C` [testosterone, testosterone propionate]: in [4], the “weight / regrowth of seminal vesicles” value is “increased the weight of the seminal vesicles and ventral prostate”; the “weight / regrowth of ventral prostate” value was “increased the weight of the seminal vesicles and ventral prostate”; the weight of epididemis entry is listed as “had no effect on the epididemis”.

For the compound `COc1ccc2[nH]cc(CCNC(C)=O)c2c1` [melatonin], the Kd in series [2] (125I-melatonin probe, epithelial cell cytosol, 1 hour at 37° C., read-out: dissociation constant) worked out at 0.6 nM. The compound further came in with a binding site density in series [2] (epithelial cell cytosol) of 140 fmol/mg cytosol protein. For the same compound, in series [3] (relative to 140 fmol/mg in epithelial cytosol), the “concentration of binding sites in stromal cytosol, factor lower than epithelial” value was “approximately 10 x”. Also, the “specific binding in the stromal preparations” value in [3] (stromal cell cytosol) is on record as “very low”. In addition, in series [4], the “weight / regrowth of seminal vesicles” value is recorded as “did not significantly affect regrowth of the seminal vesicles”, the “weight / regrowth of ventral prostate” value is “prevented the testosterone-mediated regrowth of the prostate” and the weight of epididemis result is “had hardly any effect on the epididemis”. Also, the urinary flow result in series [5] is listed as “immediate improvement in urinary flow in some of the patients”. For the same compound, in [6], the “melatonin binding sites in brain areas” value is “markedly increased melatonin binding sites in the hypothalamus, medulla-pons, thalamus and cortex”; the “serum testosterone levels vs untreated controls” value is recorded as “did not significantly differ”; the “suppressive effect of testosterone on melatonin binding sites in hypothalamus and hippocampus” value is “attenuated a suppressive effect of testosterone on melatonin binding sites”. Further, in series [7] (setting [18]), the “melatonin binding sites in brain of aged rats” value is “significantly increased melatonin binding sites in the medulla-pons and hypothalamus”; the “number of rats surviving at the age of 24-29 months” value is “markedly increased the number of rats surviving”; the “serum testosterone levels vs untreated controls” value is given as “significantly higher”. Besides, the “survival at age 27-29 months” value in series [7] (4 mg./l. in drinking water, control 7 of 16) is “these continued to live at age 27-29 months”. Besides, the “animals surviving at age 26-28 months” value in series [7] (4 mg./l. in drinking water, control 8 of 16, P=0.01) is listed as 13 of 15 animals. The pneumonia result in series [7] (aged survivors, 5 of 7 control survivors had severe pneumonia) is recorded as “either did not suffer from pneumonia, or had only very weak symptoms”. The “125I-melatonin binding in the various brain areas” value in series [1] (pinealectomized rats, melatonin via drinking water, any time recorded) is given as “had no effect on ^125 I-melatonin binding”. Moreover, in [1] (sham-operated rats, melatonin via drinking water, 13 hours after lights-on), the “125I-melatonin binding in hippocampus and midbrain” value was “decrease in ^125 I-melatonin binding”. Further, the “urinary flow (subjective)” value in series [8] (0.5 mg sustained release daily at 21:00-22:00, 6 days after initiation) is “subjective improvement in urinary flow”. Besides, the “estimated size of the prostate gland (ultrasonographic scanning)” value in [8] (0.5 mg sustained release daily, Oct. 22, 1992, 55 g before and after) is recorded as “no change in estimated size of the prostate gland”. Further, the “residual bladder urine volume retained after two attempts to empty the bladder” value in series [8] (0.5 mg sustained release daily, Oct. 22, 1992, 100 ml before treatment) is reported as “zero”. In addition, the “ultrastructural morphology of prostate specimens (electron microscopy)” value in [9] was “evidence for secretion of fresh collagen bundles”. Further, the “urinary flow (subjective)” value in series [10] (5 mg sustained release or 50 mg fast release daily in the evening, all patients but one who withdrew) is “subjective improvement of urinary flow”. In series [10] (setting [19]), the “decrease in the PSA level” value is given as “approximately 10%” and the “enlargement of the prostate gland” value is given as “no further enlargement of the prostate gland”. The 3α reductase activity result in series [11] is given as “stimulate 3α reductase activity”. Also, the 5α reductase activity result in [12] is “did not affect 5α reductase activity”. Moreover, the “weight of testes and ventral prostate gland” value in [13] (hypophysectomized animals) was “decreases the weight of both the testes and the ventral prostate gland”. Besides, the “regression of the ventral prostate gland” value in series [13] (subcutaneous 750 mcg., castrated rats, in presence of exogenous testosterone) is reported as “enhances regression of the ventral prostate gland”. The “pubertal development, including prostate development in the males” value in series [14] is “delayed pubertal development of male and female rats”. Further, the “ventral prostate and seminal vesicle weight” value in series [15] is “lowered ventral prostate and seminal vesicle weight”. Further, the toxicity result in series [16] (human, in vivo) is listed as “no significant toxicity has been observed”. Moreover, in series [16] (humans), the circulating testosterone levels result is listed as “does not increase circulating testosterone levels”.

(Values after patent US6048888A, “Method and pharmaceutical formulation for treating benign prostatic hyperplasia” (priority 1993, dated 2000).)
